Data published in PubChem BioAssay AID179 (DTP/NCI, 2004).
Calls of active or inactive are those of the source.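 Rule for the calls: active = compounds giving half or more protection of infected cells from virus-caused growth loss, again on retest; inactive = the rest.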

System: CEM cells HIV-1 protection, formazan growth assay
Assay: NCI AIDS Antiviral Assay
Conditions: for IC50: measured here: growth of uninfected CEM cells
Outline: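 Steps: treat uninfected and HIV-1-infected human CEM cells at five drug levels; quantify growth by soluble formazan; retest any compound reaching 50% protection; classify actives from the retest.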

Row | Structure (SMILES) | EC50 [µM] | IC50 [µM] | outcome
1 | CC(=O)Nc1c(C(=N)C#N)ncn1CCO | > 200 | > 200 | –
2 | CCCCCCCCCCCCCCC(C)CCC(=O)O (stereo not given) | – | – | inactive
3 | COc1c(I)c(OC)c2c(c1I)O[C@@H]1OCC[C@H]21 | > 501 | 240 | –
4 | Nc1nc(N)c2c(-c3ccccc3)ccnc2n1 | > 195 | 162 | –
5 | NC(=O)C(=CNC(=S)c1cccnc1)C(N)=O | > 200 | 74.1 | –
6 | CCOC(=O)/C(C#N)=C\Sc1ccccc1 | – | – | inactive
7 | CCCC1C/C=C/C=C/C=C/C=C/C(OC2OC(C)C(O)C(N)C2O)CC(O)C(C(=O)O)C(O)CC(=O)CC(O)CCCC(=O)CC(O)C(CC)C(=O)O1 (stereo not given) | – | – | inactive
8 | COc1ccc(/C(C#N)=C/c2ccccc2OC)cc1 | > 200 | 11.5 | –
9 | c1cc(NC2=NCCO2)c2c(c1)OCO2 | > 200 | > 200 | –
10 | CCOc1ccc(Nc2nc(C)c(C(=O)/C=C/c3ccc(Cl)cc3Cl)s2)cc1 | > 22.9 | 20 | –
11 | CC(C)C(NC(=O)C(Cc1ccccc1)NC(=O)[C@H]1CCC[C@H]1NC(=O)C(Cc1ccc(OC(C)(C)C)cc1)NC(=O)OC(C)(C)C)C(N)=O (stereo not given in full) | > 200 | 29.5 | –
12 | COc1ccc(C(OC(=O)[C@H](O[Si](C)(C)C(C)(C)C)[C@@H](NC(=O)c2ccccc2)c2ccccc2)c2ccc(OC)cc2)cc1 | > 200 | 95.5 | –
13 | CC(=O)NNc1ncc(C(=O)/C=C/c2ccccc2C)s1 | > 22.4 | > 22.4 | –
14 | Nc1nc2c(ncn2C2OC(CO)CC2F)c(=O)[nH]1 (stereo not given) | – | – | active
15 | Cc1ccc2c(c1)nc1c3ccccc3[nH]n21 | > 5.89 | > 5.89 | –
16 | COc1ccc(N2C(=Nc3ccccc3)SC(=N/S(=O)(=O)c3ccccc3)/C2=N\S(=O)(=O)c2ccccc2)cc1 | > 200 | 11.7 | –
17 | C[C@@H](CCO)OC1OC(COC(=O)C(C)(C)C)C(OC(=O)C(C)(C)C)C(OC(=O)C(C)(C)C)C1OC(=O)C(C)(C)C (stereo not given in full) | > 200 | 12 | –
18 | COc1ccc2c(C)cc(N/N=C/c3ccc(C)s3)nc2c1 | > 200 | 9.12 | –
19 | Clc1ccc(C[P+](c2ccccc2)(c2ccccc2)c2ccccc2)cc1Cl | > 200 | 3.02 | –
20 | COc1ccc(Nc2nc3cc(C(F)(F)F)ccc3nc2-c2ccccc2)cc1OC | > 30.9 | > 30.9 | –
21 | CC(C)CNC(=O)c1c(NC(=O)c2ccccc2)sc2[nH]c(=O)n(-c3ccccc3)c(=O)c12 | > 50.1 | > 50.1 | –
22 | O=C1CCCCCC1CC(Sc1ccccc1)Sc1ccccc1 (stereo not given) | > 200 | 16.2 | –

Row | Structure (SMILES) | EC50 [µM] | IC50 [µM] | outcome
23 | CC1(C)C/C=C\CCC(O)C(O)CCC(C)(C)C1=O (stereo not given) | > 200 | > 200 | –
24 | CCC1(C)N=C(C(N)=O)c2ncn(N=C(C)C)c2N1 (stereo not given) | > 200 | > 200 | –
25 | COc1ccc(C2c3c(-c4ccccc4)nn(-c4ccccc4)c3Oc3ncn(N)c(=N)c32)cc1OC (stereo not given) | > 200 | 30.2 | –
26 | C[C@H](OCc1ccccc1)C(=O)N1CCS(=O)(=O)N2CCC[C@H]2C1=O | > 676 | > 676 | –
27 | COc1ccccc1CO[C@]1(C)CNCC(C)(C)NC(=O)[C@](C)(OCc2ccccc2OC)CNCC(C)(C)NC1=O | > 200 | 91.2 | –
28 | COc1ccc2ccc3c(CCN(C)C#N)cc4c(c3c2c1OC(C)=O)OCO4 | > 34.7 | > 34.7 | –
29 | Cc1c(C)c2c(c(N)c1C#N)C(=O)N(NC(=S)Nc1ccccc1)C2=O | > 200 | 158 | –
30 | OCC1OC2OC3C(CO)OC(OC4C(CO)OC(OC5C(CO)OC(OC6C(CO)OC(OC7C(CO)OC(OC1C(O)C2O)C(O)C7O)C(O)C6O)C(O)C5O)C(O)C4O)C(O)C3O (stereo not given) (tested in a mixture with another compound) | > 200 | > 200 | –
31 | O=C(/C=C/c1ccc([N+](=O)[O-])o1)N1CCN(Cc2ccccc2)CC1 | > 95.5 | 11.2 | –
32 | COC(=O)c1ccc(C)cc1C1CN=NC12Cc1cccc(C)c1C2=O (stereo not given) | > 200 | > 200 | –
33 | CC1CC(C)(C)OB(OC(C)CC(C)(C)OB2OC(C)CC(C)(C)O2)O1 (stereo not given) | > 200 | > 200 | –
34 | CCOC(=O)CCC(NC(=O)c1ccc(Nc2nc3cc(C(F)(F)F)ccc3nc2C(=O)OCC)cc1)C(=O)OCC (stereo not given) | > 191 | 4.57 | –
35 | NC(=S)N/N=C1/CN(c2ccc(Cl)c(Cl)c2)CC(=O)C1c1nc2ccccc2s1 (stereo not given) | – | – | inactive
36 | CN(C)c1ccc(C(c2cc3c(cc2O)OCO3)N2CCOCC2)cc1 (stereo not given) | > 72.4 | 12.9 | –
37 | COc1ccccc1NC(=O)O/N=C(/Cl)C(C)C | > 200 | 7.41 | –
38 | COC1(C2c3ccccc3CCN2C(=O)OC(C)(C)C)C(=O)C(c2ccccc2)=C1N(C)C (stereo not given) | > 200 | 36.3 | –
39 | O=S1OC[C@H](CCCl)O1 (stereo not given in full) | > 200 | > 200 | –
40 | CC1(C)c2ccccc2C(O)C12CCC(=O)CC2 (stereo not given) | > 200 | > 200 | –
41 | COc1cc2c3c(c1OC)-c1c(ccc4c1OCO4)CC3(C#N)N(C(=O)c1ccccc1)CC2 (stereo not given) | – | – | inactive
42 | CC(=O)C1C(=O)C(=O)N(c2ccc(Cl)c(Cl)c2)C1=O (stereo not given) | > 200 | 129 | –
43 | COc1nc2nc[nH]c2c(=O)[nH]1 | – | – | inactive
44 | CC1(C)Oc2ccc3c(=O)cc(-c4ccc(F)cc4)oc3c2C1C(=O)O (stereo not given) | > 200 | > 200 | –

Row | Structure (SMILES) | EC50 [µM] | IC50 [µM] | outcome
45 | CCOc1ccccc1NC(=O)C(=O)CC(=O)c1c(C)n([O-])c2ccccc2[n+]1=O | > 110 | > 110 | –
46 | Cc1cc(=O)n2c(n1)Nc1ccc(Cl)cc1C2 | > 52.5 | > 52.5 | –
47 | CN(N=O)C(=O)NC(C=O)C(O)C(O)C(O)CO (stereo not given) | > 200 | > 200 | –
48 | O/N=C1/C2CC3CC1(c1ccccc1)CC(/C3=N/O)/C2=N\O (stereo not given) | > 200 | > 200 | –
49 | CCOC(=O)P(=O)(O)c1ccc(N(C)Cc2ccccc2)cc1 | > 200 | > 200 | –
50 | COC(=O)C(/C(=N\O)C(=O)Nc1cccc(Cl)c1C)c1cnc2ccccc2n1 (stereo not given) | > 17.4 | > 17.4 | –
51 | CC1CC2=C(C(=O)O1)C(c1ccccc1)Nc1ccccc1N2 (stereo not given) | > 427 | 81.3 | –
52 | CC(=O)OCC1OC(N2C(=O)NC(=O)C3C=C4CCCCC4=CC32)C(OC(C)=O)C1OC(C)=O (stereo not given) | > 200 | > 200 | –
53 | CC1(C)OP(=O)(c2ccccc2)C=C1Sc1ccc([N+](=O)[O-])cc1[N+](=O)[O-] (stereo not given) | 44.7 | 105 | –
54 | CN/N=C(/CC(=O)c1sc(-n2nc(-c3ccccc3)cc2-c2ccccc2)nc1C)C(=O)Nc1ccc(Cl)c(Cl)c1 | > 112 | > 112 | –
55 | CC1CCCN2C(=O)CN(C3CCCCC3)CC(=O)N12 (stereo not given) | > 200 | > 200 | –
56 | O=C(CN1CCN(Cc2ccccc2)CC1)N1CCCn2c1nc1ccccc1c2=O | > 200 | > 200 | –
57 | CCNC(=S)N/N=C(\C)c1cccc(C)n1 | > 2 | 1.1 | –
58 | CCOC(=O)NC(OCCN(C)C)(C(F)(F)F)C(F)(F)F | > 200 | > 200 | –
59 | Cc1cccc(NC(=O)c2cc3cc(N=Nc4ccccc4Cl)ccc3oc2=O)c1 | > 24 | > 24 | –
60 | O=C(O)OC12CCCCCC1C(=O)C1CCCCC12 (stereo not given) | > 200 | > 200 | –
61 | OC(CC(O)(C(F)(F)F)C(F)(F)F)c1ccc(C(O)CC(O)(C(F)(F)F)C(F)(F)F)cc1 (stereo not given) | > 200 | 10.2 | –
62 | CN1CCc2cc3c4cc2C1Cc1ccc(cc1)Oc1cc(ccc1O)CC1c2c(cc(O)c(c2O4)O3)CCN1C (stereo not given) | – | – | inactive
63 | CCC(CCN)(CCN)[N+](=O)[O-] | > 200 | > 200 | –
64 | C/C(CN1C(=O)c2ccccc2C1=O)=N\NS(=O)(=O)c1ccccc1 | > 20.4 | > 20.4 | –
65 | N#CC(C#N)=C/C=C/c1c(Cl)cccc1Cl | > 200 | 2.57 | –
66 | CCCCCCCCCCCCNC(=O)c1ccc([Se][Se]c2ccc(C(=O)NCCCCCCCCCCCC)cc2)cc1 | > 7.08 | > 7.08 | –

Row | Structure (SMILES) | EC50 [µM] | IC50 [µM] | outcome
67 | Fc1ccc(N2C(=S)SC(=Nc3ccccc3)C2=Nc2ccccc2)cc1 | > 200 | 23.4 | –
68 | O=c1[nH][nH]c(=O)c2nc(Nc3ccccc3)ncc12 | > 28.2 | > 28.2 | –
69 | Cc1oc2c(C)c3oc(=O)cc(C)c3cc2c1CCl | > 20 | 2.95 | –
70 | CCOC(=O)/C=C1/SC(N2CCCCC2)C(=O)N1CC (stereo not given) | > 166 | > 166 | –
71 | COc1cc(C(=O)N(C(=S)OCc2ccccn2)c2ccccc2)cc(OC)c1OC | > 200 | 74.1 | –
72 | O=C(c1ccccc1)[C@H]1Nc2ccc(Cl)cc2C2c3ccccc3CC21 (stereo not given in full) | > 14.5 | > 14.5 | –
73 | Nc1nc(Cl)cc(NCC2(CO)CCCC2)n1 | > 200 | 66.1 | –
74 | Cc1ccc(S(=O)(=O)Oc2nc3ccccc3nc2N(S(=O)(=O)c2ccc(C)cc2)S(=O)(=O)c2ccc(C)cc2)cc1 | > 200 | 17.4 | –
75 | COc1cc(OC)cc(OCc2ccc3nc(-c4ccccc4)c(Cl)nc3c2)c1 | > 100 | > 100 | –
76 | O=C(Nc1ccccc1S)OCc1ccccc1 | 34.7 | 46.8 | –
77 | c1ccc(C2C3=C(Nc4ncnn42)c2ccccc2C3)cc1 (stereo not given) | > 12.6 | 7.24 | –
78 | COC(=O)C(Cc1ccc2c(c1)CCC2)Cc1ccc2c(c1)CCC2 | > 200 | 112 | –
79 | Clc1ccc(C(SCc2ccccc2)SCc2ccccc2)cc1 | > 200 | > 200 | –
80 | CCC1(OC(=O)CN)C(=O)OCc2c1cc1n(c2=O)Cc2cc3ccccc3nc2-1 (stereo not given) | > 10 | 0.00692 | –
81 | Cc1ccccc1N1C(=O)C(=O)c2cccc(C)c21 | > 200 | 33.1 | –
82 | CC(SC(C)C(=O)N/N=C/c1ccc(B(O)O)cc1)C(=O)N/N=C\c1ccc(B(O)O)cc1 (stereo not given) | > 200 | > 200 | –
83 | O=c1cc(-c2ccccc2)oc2cc(O)c(O)c(O)c12 | > 200 | 22.4 | –
84 | CC1(C)OC(=O)C(C#N)=C1C[n+]1ccccc1 | > 263 | > 263 | –
85 | CNC(=O)OCc1nc(SC)n(C)c1COC(=O)NC | > 708 | 309 | –
86 | N#Cc1ccc(CSc2ncnc3nc[nH]c23)cc1 | > 200 | 81.3 | –
87 | CCCCCCCCCCNC(=S)OCCCC | – | – | inactive
